This note sets out measurements from ChEMBL document CHEMBL4725243, “High-Throughput Screening for the Discovery of Enzyme Inhibitors” (J Med Chem, 2020).

A word on the IC50: it is the concentration that gives 50% inhibition.

The structures appear in SMILES notation.

The nature of assay [1]: Inhibition of Mycobacterium tuberculosis kanamycin resistance enzyme Eis after 5 mins in presence of AcCoA by Ellman's reagent based assay. On the technique in general: In Ellman's method for cholinesterases, released thiocholine reacts with DTNB.
Assay [2] can be described thus: Inhibition of Mycobacterium tuberculosis kanamycin resistance enzyme Eis preincubated for 10 mins followed by AcCoA addition and measured after 5 mins at interval of 30 sec for 20 mins by UV-Vis assay.

`Cc1ccc(C(=O)C[n+]2ccn3cccc3c2-c2ccc(F)cc2)cc1`: in assay [1], the IC50 came out at 80 nM.

Regarding `O=C(C[n+]1ccn2cccc2c1-c1ccccc1)c1ccccc1`, the concentration for half-maximal inhibition (IC50) in assay [1] was 64 nM. `Cn1c2ccc(F)cc2c2nnc(SCCN3CCCCC3)nc21`: it took 30 nM to reach half-maximal inhibition in assay [2] (IC50).
